Measured values as given in ChEMBL document CHEMBL4507291 (2021).

Tests used:
[1] = biological target: Cyclin-dependent kinase 1/cyclin B (Homo sapiens) (UniProt P06493+P14635+Q8WWL7+O95067); test: CDK1/cyclin B Kinase screen; assay type: protein-complex assay; conditions: Compound concentration 1.0 uM
[2] = biological target: Ephrin type-A receptor 4 (Homo sapiens) (UniProt P54764); test: EPHA4 Kinase screen; conditions: Compound concentration 1.0 uM
Bos taurus = organism: Bos taurus; test: Protein Serine/Threonine Kinase, PKA, Non-Selective Eurofins-Panlabs enzyme assay; assay type: protein-complex assay; design: substrate with concentration 370 µg/mL Histone Type III-S, incubation time 15 min, incubation temperature 25 °C; conditions: Compound concentration 10.0 uM
[3] = biological target: Casein kinase I isoform gamma-3 (Homo sapiens) (UniProt Q9Y6M4); test: CSNK1G3 (CK1 gamma 3) Kinase screen; conditions: Compound concentration 1.0 uM
[4] = biological target: T1, Serine/threonine-protein kinase DCLK2 (Homo sapiens) (UniProt Q8N568); test: DCAMKL2 (DCK2) Kinase screen; conditions: Compound concentration 1.0 uM
T1 sequence (whole entry): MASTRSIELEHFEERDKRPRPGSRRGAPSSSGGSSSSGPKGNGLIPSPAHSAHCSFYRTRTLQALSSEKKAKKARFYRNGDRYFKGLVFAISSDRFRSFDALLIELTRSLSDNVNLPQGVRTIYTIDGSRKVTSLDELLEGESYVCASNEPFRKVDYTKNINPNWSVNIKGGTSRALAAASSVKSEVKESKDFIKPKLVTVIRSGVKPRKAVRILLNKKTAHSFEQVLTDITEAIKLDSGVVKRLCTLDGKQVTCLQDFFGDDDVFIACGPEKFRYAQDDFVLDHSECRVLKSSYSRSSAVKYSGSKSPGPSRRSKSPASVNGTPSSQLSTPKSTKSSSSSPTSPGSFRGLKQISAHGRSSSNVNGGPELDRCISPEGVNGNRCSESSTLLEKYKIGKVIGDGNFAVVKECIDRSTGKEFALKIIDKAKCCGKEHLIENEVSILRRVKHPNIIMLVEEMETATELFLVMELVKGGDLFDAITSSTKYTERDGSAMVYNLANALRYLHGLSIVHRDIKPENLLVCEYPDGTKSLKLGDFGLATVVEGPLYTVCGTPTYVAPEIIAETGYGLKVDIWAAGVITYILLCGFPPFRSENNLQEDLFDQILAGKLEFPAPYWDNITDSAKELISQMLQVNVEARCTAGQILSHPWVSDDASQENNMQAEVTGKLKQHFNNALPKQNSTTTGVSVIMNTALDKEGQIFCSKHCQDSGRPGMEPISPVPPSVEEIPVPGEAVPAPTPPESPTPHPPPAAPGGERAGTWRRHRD

[5] = biological target: Mitogen-activated protein kinase kinase kinase kinase 4 (Homo sapiens) (UniProt O95819); test: MAP4K4 (HGK) Kinase screen; conditions: Compound concentration 1.0 uM
[6] = biological target: Fibroblast growth factor receptor 1 (Homo sapiens) (UniProt P11362); test: FGFR1 Kinase screen; conditions: Compound concentration 1.0 uM
[7] = biological target: Mitogen-activated protein kinase 14 (Homo sapiens) (UniProt Q16539); test: MAPK14 (p38 alpha) Direct Kinase screen; conditions: Compound concentration 1.0 uM
[8] = system: Epidermal growth factor receptor (Homo sapiens), P00533 [L858R]; test: EGFR (ErbB1) L858R Kinase screen; conditions: Compound concentration 1.0 uM
[9] = biological target: T2, Ephrin type-B receptor 3 (Homo sapiens) (UniProt P54753); test: EPHB3 Kinase screen; conditions: Compound concentration 1.0 uM
T2 sequence (whole entry): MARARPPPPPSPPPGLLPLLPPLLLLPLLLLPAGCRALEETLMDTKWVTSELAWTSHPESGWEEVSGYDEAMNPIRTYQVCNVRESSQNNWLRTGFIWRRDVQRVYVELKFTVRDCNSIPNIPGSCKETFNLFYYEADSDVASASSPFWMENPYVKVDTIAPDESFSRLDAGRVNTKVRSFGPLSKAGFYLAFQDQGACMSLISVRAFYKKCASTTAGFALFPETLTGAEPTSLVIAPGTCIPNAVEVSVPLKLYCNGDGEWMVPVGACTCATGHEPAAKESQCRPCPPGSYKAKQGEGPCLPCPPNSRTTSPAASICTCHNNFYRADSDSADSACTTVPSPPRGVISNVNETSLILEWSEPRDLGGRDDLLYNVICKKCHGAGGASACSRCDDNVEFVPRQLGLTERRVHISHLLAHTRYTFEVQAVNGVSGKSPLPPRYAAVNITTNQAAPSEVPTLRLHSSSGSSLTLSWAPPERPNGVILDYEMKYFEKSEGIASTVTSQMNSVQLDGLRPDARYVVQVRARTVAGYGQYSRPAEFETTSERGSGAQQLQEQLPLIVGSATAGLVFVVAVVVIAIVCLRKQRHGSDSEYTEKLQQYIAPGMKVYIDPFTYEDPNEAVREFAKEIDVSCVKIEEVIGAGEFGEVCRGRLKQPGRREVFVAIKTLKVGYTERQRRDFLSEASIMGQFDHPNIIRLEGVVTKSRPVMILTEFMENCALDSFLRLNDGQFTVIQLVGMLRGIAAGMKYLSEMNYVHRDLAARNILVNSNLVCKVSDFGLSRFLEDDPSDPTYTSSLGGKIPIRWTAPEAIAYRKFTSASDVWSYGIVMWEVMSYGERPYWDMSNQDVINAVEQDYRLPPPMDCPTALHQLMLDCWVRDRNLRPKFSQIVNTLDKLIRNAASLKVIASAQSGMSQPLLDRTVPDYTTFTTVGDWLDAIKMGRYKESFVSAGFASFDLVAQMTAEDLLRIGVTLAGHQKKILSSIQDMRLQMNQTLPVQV

[10] = biological target: T3, Tyrosine-protein kinase ZAP-70 (Homo sapiens) (UniProt P43403); test: ZAP70 Kinase screen; conditions: Compound concentration 1.0 uM
T3 sequence (whole entry): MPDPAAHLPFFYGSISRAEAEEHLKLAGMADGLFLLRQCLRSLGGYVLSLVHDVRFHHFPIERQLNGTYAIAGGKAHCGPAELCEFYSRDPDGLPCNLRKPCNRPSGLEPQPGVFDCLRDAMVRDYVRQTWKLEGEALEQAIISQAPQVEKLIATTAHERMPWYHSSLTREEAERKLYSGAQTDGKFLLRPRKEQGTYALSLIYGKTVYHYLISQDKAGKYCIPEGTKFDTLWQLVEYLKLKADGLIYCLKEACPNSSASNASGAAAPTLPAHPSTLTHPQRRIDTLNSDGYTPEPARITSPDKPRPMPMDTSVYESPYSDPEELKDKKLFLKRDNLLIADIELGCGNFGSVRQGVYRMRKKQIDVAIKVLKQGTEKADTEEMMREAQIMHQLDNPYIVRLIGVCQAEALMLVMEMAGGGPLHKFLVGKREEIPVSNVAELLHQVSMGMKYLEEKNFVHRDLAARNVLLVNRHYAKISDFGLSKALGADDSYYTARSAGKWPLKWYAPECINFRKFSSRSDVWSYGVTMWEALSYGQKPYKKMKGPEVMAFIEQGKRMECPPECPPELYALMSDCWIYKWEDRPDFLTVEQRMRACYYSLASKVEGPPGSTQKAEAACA

[11] = biological target: Vasopressin V2 receptor (Homo sapiens) (UniProt P30518); test: Inhibition of Vasopressin V2 at 10 µM in the Eurofins-Panlabs radioligand binding assay (Eurofins_assay_287610); design: ligand concentration 4 nM; conditions: Compound concentration 10.0 uM
[12] = biological target: Serine/threonine-protein kinase pim-1 (Homo sapiens) (UniProt P11309); test: PIM1 Kinase screen; conditions: Compound concentration 1.0 uM
[13] = biological target: cAMP-dependent protein kinase catalytic subunit alpha (Homo sapiens) (UniProt P17612); test: PRKACA (PKA) Kinase screen; conditions: Compound concentration 1.0 uM

Measured: inhibition

Chain of Casein kinase I isoform gamma-3 (Homo sapiens) (Q9Y6M4 whole entry, looked up, canonical isoform): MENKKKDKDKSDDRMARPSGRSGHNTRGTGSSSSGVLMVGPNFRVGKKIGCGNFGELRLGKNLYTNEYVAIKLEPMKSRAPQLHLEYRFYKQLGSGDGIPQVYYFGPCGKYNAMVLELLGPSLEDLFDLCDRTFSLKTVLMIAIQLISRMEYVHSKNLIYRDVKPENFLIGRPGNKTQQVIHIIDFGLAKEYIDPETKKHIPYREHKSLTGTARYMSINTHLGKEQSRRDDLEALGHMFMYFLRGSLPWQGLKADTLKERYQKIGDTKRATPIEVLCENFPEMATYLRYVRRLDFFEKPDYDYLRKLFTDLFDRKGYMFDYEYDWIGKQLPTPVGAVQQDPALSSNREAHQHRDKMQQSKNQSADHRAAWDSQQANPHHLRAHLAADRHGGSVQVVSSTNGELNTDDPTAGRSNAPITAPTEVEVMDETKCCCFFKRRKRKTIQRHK
Chain of Mitogen-activated protein kinase 14 (Homo sapiens) (Q16539 whole entry): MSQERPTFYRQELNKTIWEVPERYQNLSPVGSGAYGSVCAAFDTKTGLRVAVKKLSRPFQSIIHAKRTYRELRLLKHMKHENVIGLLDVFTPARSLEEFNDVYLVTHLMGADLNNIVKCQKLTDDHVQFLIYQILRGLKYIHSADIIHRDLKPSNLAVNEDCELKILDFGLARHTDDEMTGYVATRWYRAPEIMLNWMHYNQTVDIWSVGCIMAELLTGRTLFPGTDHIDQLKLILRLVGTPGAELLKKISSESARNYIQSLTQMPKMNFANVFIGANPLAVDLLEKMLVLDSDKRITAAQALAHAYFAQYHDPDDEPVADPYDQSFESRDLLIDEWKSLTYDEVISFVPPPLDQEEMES
Chain of Ephrin type-A receptor 4 (Homo sapiens) (P54764 whole entry): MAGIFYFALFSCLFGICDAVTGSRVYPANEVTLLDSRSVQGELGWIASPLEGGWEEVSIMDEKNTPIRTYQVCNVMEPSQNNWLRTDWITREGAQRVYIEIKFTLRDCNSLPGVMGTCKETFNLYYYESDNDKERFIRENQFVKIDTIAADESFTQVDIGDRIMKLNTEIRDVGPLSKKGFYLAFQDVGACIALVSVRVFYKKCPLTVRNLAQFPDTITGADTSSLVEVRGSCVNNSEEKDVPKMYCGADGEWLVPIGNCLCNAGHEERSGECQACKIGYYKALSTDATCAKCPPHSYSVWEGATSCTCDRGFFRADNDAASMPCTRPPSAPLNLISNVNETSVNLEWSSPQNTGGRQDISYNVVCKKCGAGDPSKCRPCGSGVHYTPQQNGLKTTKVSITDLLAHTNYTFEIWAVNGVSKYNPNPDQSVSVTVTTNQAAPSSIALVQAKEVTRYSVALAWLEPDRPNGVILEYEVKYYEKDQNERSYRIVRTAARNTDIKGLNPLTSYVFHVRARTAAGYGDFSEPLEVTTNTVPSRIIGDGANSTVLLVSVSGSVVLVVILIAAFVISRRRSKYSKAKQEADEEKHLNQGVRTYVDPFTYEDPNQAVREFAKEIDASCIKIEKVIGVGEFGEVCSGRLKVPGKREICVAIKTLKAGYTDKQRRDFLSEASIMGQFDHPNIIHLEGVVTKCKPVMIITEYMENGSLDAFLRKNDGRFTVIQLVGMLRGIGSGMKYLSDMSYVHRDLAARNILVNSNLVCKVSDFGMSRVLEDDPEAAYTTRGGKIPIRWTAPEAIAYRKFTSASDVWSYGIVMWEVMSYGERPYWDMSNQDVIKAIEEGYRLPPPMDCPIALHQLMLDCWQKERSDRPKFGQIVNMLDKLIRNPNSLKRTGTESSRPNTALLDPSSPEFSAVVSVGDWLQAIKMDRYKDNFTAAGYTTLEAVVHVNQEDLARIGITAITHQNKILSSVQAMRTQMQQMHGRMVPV
Chain of Serine/threonine-protein kinase pim-1 (Homo sapiens) (P11309 whole entry, looked up): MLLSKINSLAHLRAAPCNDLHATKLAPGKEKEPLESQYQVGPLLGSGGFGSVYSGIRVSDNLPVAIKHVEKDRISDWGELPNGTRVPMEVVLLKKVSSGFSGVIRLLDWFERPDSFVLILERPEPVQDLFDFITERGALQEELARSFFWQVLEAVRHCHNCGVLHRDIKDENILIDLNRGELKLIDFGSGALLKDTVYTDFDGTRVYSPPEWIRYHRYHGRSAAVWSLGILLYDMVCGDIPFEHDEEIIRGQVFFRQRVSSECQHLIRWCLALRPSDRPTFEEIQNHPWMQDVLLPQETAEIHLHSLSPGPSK
Chain of Mitogen-activated protein kinase kinase kinase kinase 4 (Homo sapiens) (O95819 2-1239 limits assumed): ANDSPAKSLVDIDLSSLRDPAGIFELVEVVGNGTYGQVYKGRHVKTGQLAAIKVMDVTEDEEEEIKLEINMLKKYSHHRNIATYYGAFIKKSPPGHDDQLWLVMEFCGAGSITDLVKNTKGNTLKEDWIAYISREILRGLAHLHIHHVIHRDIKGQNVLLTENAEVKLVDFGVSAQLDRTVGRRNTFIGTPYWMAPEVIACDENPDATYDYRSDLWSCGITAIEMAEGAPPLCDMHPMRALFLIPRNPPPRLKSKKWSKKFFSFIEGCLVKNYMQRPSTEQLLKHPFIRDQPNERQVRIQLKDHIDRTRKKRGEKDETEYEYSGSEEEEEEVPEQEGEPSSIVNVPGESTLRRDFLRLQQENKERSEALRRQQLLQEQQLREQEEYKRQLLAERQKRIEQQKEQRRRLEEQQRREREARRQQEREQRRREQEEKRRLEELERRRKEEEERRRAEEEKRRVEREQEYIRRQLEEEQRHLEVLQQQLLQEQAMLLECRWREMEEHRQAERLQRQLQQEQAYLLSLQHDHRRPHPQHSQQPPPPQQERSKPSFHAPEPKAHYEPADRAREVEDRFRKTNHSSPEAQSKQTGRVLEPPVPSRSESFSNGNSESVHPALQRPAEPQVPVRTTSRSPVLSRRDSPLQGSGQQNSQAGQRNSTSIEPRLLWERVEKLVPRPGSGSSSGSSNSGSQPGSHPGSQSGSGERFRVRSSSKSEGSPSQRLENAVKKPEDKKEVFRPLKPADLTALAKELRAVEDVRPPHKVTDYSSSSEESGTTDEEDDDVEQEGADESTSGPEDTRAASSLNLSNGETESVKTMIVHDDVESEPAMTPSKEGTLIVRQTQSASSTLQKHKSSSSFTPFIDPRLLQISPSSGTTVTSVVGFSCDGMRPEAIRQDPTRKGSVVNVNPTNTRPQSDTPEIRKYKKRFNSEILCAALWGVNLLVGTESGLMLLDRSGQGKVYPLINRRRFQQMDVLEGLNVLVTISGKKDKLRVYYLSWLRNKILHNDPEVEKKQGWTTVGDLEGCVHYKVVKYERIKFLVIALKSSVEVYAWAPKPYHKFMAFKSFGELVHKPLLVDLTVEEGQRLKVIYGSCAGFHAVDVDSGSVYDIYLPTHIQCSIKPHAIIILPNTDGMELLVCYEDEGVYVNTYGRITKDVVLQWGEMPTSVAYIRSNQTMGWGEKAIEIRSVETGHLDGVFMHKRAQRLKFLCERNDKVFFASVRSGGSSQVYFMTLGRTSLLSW
Chain of Epidermal growth factor receptor (Homo sapiens), P00533 [L858R] (P00533 whole entry L858R): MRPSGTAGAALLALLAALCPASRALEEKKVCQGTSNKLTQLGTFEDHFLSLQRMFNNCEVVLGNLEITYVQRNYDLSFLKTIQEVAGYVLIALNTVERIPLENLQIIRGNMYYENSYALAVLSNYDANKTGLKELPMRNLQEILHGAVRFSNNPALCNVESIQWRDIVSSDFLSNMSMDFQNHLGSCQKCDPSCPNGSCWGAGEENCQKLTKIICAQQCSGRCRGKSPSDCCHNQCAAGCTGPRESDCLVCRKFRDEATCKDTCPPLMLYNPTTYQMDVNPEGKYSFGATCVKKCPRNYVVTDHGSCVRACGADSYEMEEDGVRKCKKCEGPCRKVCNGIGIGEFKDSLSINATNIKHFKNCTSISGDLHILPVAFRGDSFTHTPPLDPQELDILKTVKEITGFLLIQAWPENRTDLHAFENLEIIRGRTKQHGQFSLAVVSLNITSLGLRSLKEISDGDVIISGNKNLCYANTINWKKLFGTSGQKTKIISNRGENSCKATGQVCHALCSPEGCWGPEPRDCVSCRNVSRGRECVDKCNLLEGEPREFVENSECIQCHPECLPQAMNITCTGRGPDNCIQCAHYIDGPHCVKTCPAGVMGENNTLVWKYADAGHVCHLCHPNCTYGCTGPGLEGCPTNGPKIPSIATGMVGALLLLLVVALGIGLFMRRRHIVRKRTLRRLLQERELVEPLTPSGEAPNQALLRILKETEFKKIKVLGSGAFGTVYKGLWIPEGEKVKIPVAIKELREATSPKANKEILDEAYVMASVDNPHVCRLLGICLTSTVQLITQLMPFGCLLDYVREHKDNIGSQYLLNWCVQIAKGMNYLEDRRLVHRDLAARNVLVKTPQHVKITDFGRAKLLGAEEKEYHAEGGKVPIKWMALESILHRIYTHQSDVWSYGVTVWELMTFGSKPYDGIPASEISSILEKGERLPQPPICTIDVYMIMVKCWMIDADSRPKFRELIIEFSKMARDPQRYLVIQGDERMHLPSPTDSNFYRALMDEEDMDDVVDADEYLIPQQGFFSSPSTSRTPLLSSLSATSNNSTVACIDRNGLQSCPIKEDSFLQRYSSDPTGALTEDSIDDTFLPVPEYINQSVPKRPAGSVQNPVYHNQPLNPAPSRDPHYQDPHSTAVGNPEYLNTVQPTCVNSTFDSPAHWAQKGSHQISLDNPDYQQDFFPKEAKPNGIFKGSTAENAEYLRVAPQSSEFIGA
Chain of Vasopressin V2 receptor (Homo sapiens) (P30518 whole entry): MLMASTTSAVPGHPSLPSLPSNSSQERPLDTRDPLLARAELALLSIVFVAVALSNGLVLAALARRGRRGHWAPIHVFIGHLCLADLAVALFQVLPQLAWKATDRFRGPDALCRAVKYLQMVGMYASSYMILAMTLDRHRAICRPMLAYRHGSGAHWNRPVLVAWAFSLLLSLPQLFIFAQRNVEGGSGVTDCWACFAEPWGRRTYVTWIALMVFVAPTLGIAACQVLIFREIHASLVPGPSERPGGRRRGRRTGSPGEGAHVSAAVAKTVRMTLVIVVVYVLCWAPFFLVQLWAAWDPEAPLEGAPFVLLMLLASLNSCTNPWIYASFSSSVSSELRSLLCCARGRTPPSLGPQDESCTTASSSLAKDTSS

C[C@@H]1CN(c2cc(-c3n[nH]c4ccc(OC5(C)CC5)cc34)ncn2)C[C@H](C)O1 [MLi-2]
inactive: [1] 1.29% | [2] 4.82% | Bos taurus 16% | [3] 2.15% | [4] 5.61% | [5] 17.1% | [6] 3.88% | [7] 8.11% | [8] -0.455% | [9] 9.87% | [10] 10.2% | [11] 9% | [12] -2.73% | [13] -2.26%
